Measured values: US6727240B1, “Methods for preventing HIV-1 or HIV-2 infection” (New York Blood Center, Inc., priority 1993, dated 2004)

Assays:
MT-2 cells = test: Cytotoxic effect in the absence of HIV-1 (lysis of uninfected cells); assay type: cell-based
[1] = tested on: V3 hypervariable loop peptides from gp120 from 21 distinct HIV-1 isolates; test: ELISA: reaction of V3 hypervariable loop peptides with homologous anti-peptide antisera; assay type: binding; conditions: rabbit antisera diluted 1:1,000; FIG. 2
Description: (§1) The inhibitory effect of PTP-IX and its metal derivatives on binding to gp120 of monoclonal antibodies (mAbs) specific for the V3 loop or for the CD4 binding site was measured by ELISA tests using as second antibodies horseradish peroxidase (HRP) labeled anti-mouse IgG.
Sn-PTP-IX was also tested for inhibition of the reaction between V3 hypervariable loop peptides from 21 distinct HIV-1 isolates and the corresponding homologous antipeptide antibodies. […] With respect of FIG. 2, peptide coated wells of polystyrene plates were reacted in the presence and absence of the porphyrin derivative with the respective rabbit antisera diluted 1:1,000, and the attachment of rabbit IgG was subsequently determined using horseradish peroxidase labeled anti-rabbit IgG.
(§2) The inhibitory effect of PTP-IX and its metal complexes on the reaction between antibodies of distinct specificities and gp120 (or synthetic peptides derived from it) was calculated by the following formula: [formula]

[2] = target: T1, CD4 binding site of gp120 (recombinant gp120) (Human immunodeficiency virus type 1 group M subtype B, UniProt P03375); test: ELISA: binding of mAb 588D to gp120-coated wells; design: species or system HIV-1; conditions: mAb 588D 200 ng/well; FIG. 3
T1 construct: recombinant gp120 produced insect cells infected with a baculovirus vector; host or cells: insect cells infected with a baculovirus vector
Description: as §1
The inhibitory effect of Sn-PTP-IX on the reaction between gp120 and mAb specific for the CD4 binding site on gp120 was also investigated. For this purpose, mAb 588D (obtained from the AIDS Research and Reagent Reference Program and from Dr. S. Zolla-Pazner of New York Veterans Affairs Medical Center) was used.
as §2

[3] = tested on: deletion mutant of gp120 lacking the V3 loop sequence; test: Binding of CD4-binding-site mAbs to gp120 deletion mutant; design: species or system HIV-1
[4] = versus Sn-PTP-IX; cited from earlier work

Row | Compound | CD50 = concentration at which 50% of uninfected cells were lysed (MT-2 cells) [µg/mL] | S.I. = selectivity index = CD50/ED50 (toxicity/activity) (HIV-1) | further results
1 | C=CC1=C(C)c2cc3[n-]c(cc4[n-]c(cc5nc(cc1n2)C(C)=C5C=C)c(C)c4CCC(=O)O)c(CCC(=O)O)c3C.[Mn+2] [Mn-Protoporphyrin IX] | >80 | >2.8 | –
2 | C=Cc1c2[n-]c(c1C)/C=c1\[n-]/c(c(C)c1C=C)=C\c1[n-]c(c(CCC(=O)O)c1C)C=c1[n-]/c(c(C)c1CCC(=O)O)=C\2.[Sn+4] [Sn-Protoporphyrin IX, tin protoporphyrin IX] | 18.0 | 33.5 | Inhibition of the reaction between V3 loop peptides and homologous antibodies [1]: inhibited; Inhibition of binding of mAb 588D to gp120 [2]: blocked in a concentration dependent manner; Inhibition of binding of CD4-binding-site mAbs to gp120 lacking the V3 loop [3]: not observed; Inhibition of HIV-1 infection (in words) (HIV-1; compared with metal-free PTP-IX): effectively inhibited HIV-1 infection at considerably lower concentrations than did metal-free PTP-IX
3 | C=Cc1c(C)c2cc3[nH]c(cc4nc(cc5nc(cc1[nH]2)C(C)=C5CCC(=O)[O-])C(CCC(=O)[O-])=C4C)c(C)c3C=C.[Co+2] [Co-Protoporphyrin IX] | – | >6.2 | –
4 | tin mesoporphyrin IX [Sn-Mesoporphyrin IX] | >20 | >5.6 | –
5 | C=CC1=C(C)c2cc3[nH]c(cc4nc(cc5[nH]c(cc1n2)c(C)c5CCC(=O)O)C(CCC(=O)O)=C4C)c(C)c3C=C [Protoporphyrin IX] | – | 7.3 | –
6 | C=CC1=C(C)c2cc3[n-]c(cc4[n-]c(cc5nc(cc1n2)C(C)=C5C=C)c(C)c4CCC(=O)O)c(CCC(=O)O)c3C.[Zn+2] [Zn-Protoporphyrin IX] | – | >3.1 | ED50 values relative to Sn-PTP-IX (times higher) [4]: approximately 50 times
